# Laboratory results as given in US8367873B2, “Phenyl-substituted bicyclooctane-1,3-dione derivatives” (Bayer Cropscience AG, priority 2008, dated 2013).
# Assays:
# Format in all cases: in vivo
# [1] = test system: monocotylidonous and dicotylidonous weed and crop plants; test: Herbicidal pre-emergence action (other test plants); settings: pre-emergence method, 80 g/ha, greenhouse, visual assessment vs untreated controls
# From the text: (§1) Seeds of monocotylidonous and dicotylidonous weed and crop plants are placed in sandy loam in wood fibre pots and covered with soil. The test compounds, formulated in the form of wettable powders (WP), are then, as an aqueous suspension with a water application rate of 600 l/ha (converted), with 0.2% of wetting agent added, applied to the surface of the covering soil in different amounts.
# (§2) After the treatment, the pots are placed in a greenhouse and kept under good growth conditions for the test plants. The visual assessment of the emergence damage on the test plants is carried out after a trial period of three weeks by comparison with the untreated controls (herbicidal effect in percent: 100% effect=the plants have died, 0% effect=like control plants).
# Setaria viridis [2] = test: Herbicidal post-emergence action; settings: post-emergence method, 80 g/ha
# Description: (§3) Seeds of monocotylidonous and dicotylidonous weed and crop plants are placed in sandy loam in wood fibre pots, covered with soil and cultivated in a greenhouse under good growth conditions. Two to three weeks after sowing, the test plants are treated at the one-leaf stage. The test compounds, formulated as wettable powders (WP), are then with a water application rate of 600 l/ha (converted), with 0.2% of wetting agent added, sprayed onto the green parts of the plants in different amounts. After the test plants have been kept in the greenhouse under optimum growth conditions for about three weeks, the effect of the preparations is assessed visually in comparison to untreated controls (herbicidal effect in percent: 100% effect=the plants have died, 0% effect=like control plants).
# Echinocloa crus-galli [3] = test: Herbicidal post-emergence action; settings: post-emergence method, 80 g/ha
# Description: as §3
# Lolium multiflorum [4] = test: Herbicidal post-emergence action; settings: post-emergence method, 80 g/ha
# Description: as §3
# Alopecurus myosuroides [5] = test: Herbicidal post-emergence action; settings: post-emergence method, 80 g/ha
# Description: as §3
# [6] = test system: monocotylidonous and dicotylidonous weed and crop plants; test: Herbicidal post-emergence action (other test plants); settings: post-emergence method, 80 g/ha
# Description: as §3
# Setaria viridis [7] = test: Herbicidal pre-emergence action; settings: pre-emergence method, 80 g/ha, greenhouse, visual assessment vs untreated controls
# From the text: as §1, §2
# Echinocloa crus-galli [8] = test: Herbicidal pre-emergence action; settings: pre-emergence method, 80 g/ha, greenhouse, visual assessment vs untreated controls
# From the text: as §1, §2
# Lolium multiflorum [9] = test: Herbicidal pre-emergence action; settings: pre-emergence method, 80 g/ha, greenhouse, visual assessment vs untreated controls
# From the text: as §1, §2
# Alopecurus myosuroides [10] = test: Herbicidal pre-emergence action; settings: pre-emergence method, 80 g/ha, greenhouse, visual assessment vs untreated controls
# From the text: as §1, §2
Structure (SMILES),herbicidal effect AVEFA [1] [%],herbicidal effect against SETVI (Setaria viridis) (Setaria viridis [2]) [%],herbicidal effect against ECHCG (Echinochloa crus-galli) (Echinocloa crus-galli [3]) [%],herbicidal effect against LOLMU (Lolium multiflorum) (Lolium multiflorum [4]) [%],herbicidal effect against ALOMY (Alopecurus myosuroides) (Alopecurus myosuroides [5]) [%],herbicidal effect against AVEFA (Avena fatua) [6] [%],herbicidal effect SETVI (Setaria viridis [7]) [%],herbicidal effect ECHCG (Echinocloa crus-galli [8]) [%],herbicidal effect LOLMU (Lolium multiflorum [9]) [%],herbicidal effect ALOMY (Alopecurus myosuroides [10]) [%]
CCc1cc(C)cc(CC)c1C1=C(OC(=O)C(C)(C)C)C2CC3(CC2C1=O)OCCCO3 (centres unmarked) [I-b-27],70,100,100,100,100,100,70,100,100,–
COc1cc(C)cc(C)c1C1=C(OC(=O)C(C)C)C2CC3(CC2C1=O)OCC=CCO3 (centres unmarked) [I-b-63],–,100,100,100,100,100,70,100,100,70
Cc1cc(C)c(C2=C(O)C3CC4(CC3C2=O)OCC=CCO4)c(C)c1 (centres unmarked) [I-a-41],60,100,90,100,100,40,–,50,100,60
CCc1cc(C)cc(CC)c1C1=C(OC(=O)C(C)(C)C)C2CC3(CC2C1=O)OCCS3 (mixture of isomers) [I-b-19],–,80,100,40,20,30,90,100,100,100
CCc1cc(C)cc(CC)c1C1=C(OC(=O)C(C)C)C2CC3(CC2C1=O)OC(C)CC(C)O3 (centres unmarked) [I-b-15],50,100,100,100,100,90,–,100,80,80
Cc1cc(C)c(C2=C(OC(=O)C(C)C)C3CC4(CC3C2=O)OCC=CCO4)c(C)c1 (centres unmarked) [I-b-42],70,100,100,100,100,80,90,60,100,–
CCc1cc(C)cc(CC)c1C1=C(OC(=O)OC)C2CC3(CC2C1=O)OCCCO3 (centres unmarked) [I-c-35],70,100,100,100,100,100,70,–,100,80
CCc1cc(C)cc(CC)c1C1=C(OC(=O)C(C)(C)C)C2CC3(COC(C)(C)O3)CC2C1=O (centres unmarked) [I-b-5],–,0,80,100,90,20,60,10,100,90
CCc1cc(C)cc(C)c1C1=C(OC(=O)C(C)C)C2CC3(CC2C1=O)OCCCCO3 (centres unmarked) [I-b-77],40,90,100,100,100,60,60,–,90,60
CCc1cc(C)cc(CC)c1C1=C(O)[C@H]2CC(=NOC3CC3)C[C@H]2C1=O (relative stereo) [I-a-30],0,50,100,90,90,0,70,–,70,80
C=C1CC2C(=O)C(c3c(C)cc(C)cc3OC)=C([O-])C2C1.[Na+] (centres unmarked) [I-f-22],70,100,100,80,30,40,100,–,80,80
CCc1cc(C)cc(CC)c1C1=C(OC(=O)C(C)C)C2CC3(CC2C1=O)OCCCO3 (centres unmarked) [I-b-29],70,100,100,100,100,90,80,100,100,–
CCc1cc(C)cc(CC)c1C1=C(O)[C@H]2CC(=NOC(C)C)C[C@H]2C1=O (relative stereo) [I-a-29],–,80,100,100,100,60,20,70,80,90
CCc1cc(C)cc(CC)c1C1=C(OC(=O)OC)C2CC3(CC2C1=O)OC(C)CC(C)O3 (mixture of isomers) [I-c-24],–,100,100,100,100,80,70,70,100,90
CCC(=O)OC1=C(c2c(C)cc(C)cc2C)C(=O)C2CC(=O)CC12 (centres unmarked) [I-b-57],–,100,100,0,0,0,–,–,–,–
